Laboratory results as given in US11642344B2, “Cholesteryl ester transfer protein (CETP) inhibitor and pharmaceutical compositions comprising said inhibitor for use in the treatment or prevention of cardiovascular diseases” (NewAmsterdam Pharma B.V., priority 2014, dated 2023).

Target: T1, CETP (Homo sapiens, UniProt P11597)
T1 construct: from tissue; host or cells: plasma of Caucasian male subjects dosed with Compound A or placebo
T1 sequence (P11597 18-493): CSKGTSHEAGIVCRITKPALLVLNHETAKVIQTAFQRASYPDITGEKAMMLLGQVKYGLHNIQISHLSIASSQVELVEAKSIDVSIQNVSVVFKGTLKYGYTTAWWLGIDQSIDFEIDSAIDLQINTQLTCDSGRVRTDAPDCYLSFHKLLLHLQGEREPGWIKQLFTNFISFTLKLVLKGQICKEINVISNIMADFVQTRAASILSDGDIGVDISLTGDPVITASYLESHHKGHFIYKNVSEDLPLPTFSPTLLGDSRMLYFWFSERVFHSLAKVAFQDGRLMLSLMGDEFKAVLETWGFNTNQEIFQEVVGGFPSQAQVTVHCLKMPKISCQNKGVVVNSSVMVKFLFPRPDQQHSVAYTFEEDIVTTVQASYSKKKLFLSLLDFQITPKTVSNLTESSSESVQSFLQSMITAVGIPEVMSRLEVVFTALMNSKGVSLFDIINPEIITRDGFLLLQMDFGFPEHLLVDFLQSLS
Assay: In vitro CETP assay: 3H-labeled CE transfer from HDL to VLDL/LDL in human plasma
Format: biochemical
Settings: 24 h pre-incubation at 37° C.
Description: Human blood was obtained from healthy male volunteers using 0.1% EDTA as an anticoagulant, and centrifuged at 3,000 rpm for 15 minutes at 4° C. Human plasma was pooled, and then used for the preparation of ^3H-labeled HDL or stored at −80° C. for CETP assay until use. The ^3H-labeled HDL was prepared with human plasma as described by Glenn and Melton (Methods in enzymology. 263; 339-351, 1996). The specific gravity of plasma was measured by a hydrometer, and the density was adjusted to 1.125 g/mL by adding solid KBr. After centrifugation at 100,000 rpm for 4 hours at 12° C. (rotor: 100.4, Optima TLX, Beckman), d>1.125 g/mL fraction was dialyzed against 4 L of Tris-saline-EDTA buffer (TSE; 50 mmol/L Tris, 150 mmol/L NaCl, 2 mmol/L EDTA, pH7.4) for 18 hours at 4° C. [1,2-^3H(N)]-Cholesterol (37 MBq/mL) was added to the dialyzed plasma fraction at the amount of 2 μCi/mL. The tube was tightly sealed under N2 gas stream and incubated at 37° C. for 18 hours with gently stirring to allow esterification of radio-labeled cholesterol by endogenous LCAT. The incubated plasma fraction was adjusted to d=1.21 g/mL with solid KBr, and centrifuged at 100,000 rpm, 12° C. for 5 hours. ^3H-labeled HDL fraction was dialyzed against 2 L of TSE at 4° C. for 18 hours. The radioactivity of ^3H-labeled HDL was counted in a liquid scintillation counter. ^3H-labeled HDL was stored at 4° C. until use.
CETP activity was determined as the rate of ^3H-labeled CE transfer from donor HDL to acceptor VLDL/LDL. Human plasma (94 μL) was pre-incubated with compounds dissolved in DMSO (1 μL) 24 hours at 37° C., and then incubated for 4 hours at 4° C. or 37° C. with 5 μL of ^3H-labeled HDL. One hundred μL of phosphotungstate/MgCl2 reagent (Wako pure chemical) were added to precipitate apoB-containing lipoproteins. After centrifugation at 3,000 rpm for 10 minutes at room temperature, the radioactivity of the supernatant was counted in a liquid scintillation counter. […] The concentration achieving 50% inhibition of CETP activity (IC50) was estimated.

Molecule CCOC(=O)N1c2ccc(C(F)(F)F)cc2[C@@H](N(Cc2cc(C(F)(F)F)cc(C(F)(F)F)c2)c2ncc(OCCCC(=O)O)cn2)C[C@H]1CC [Compound A, {4-[(2-{[3,5-bis(trifluoromethyl)benzyl][(2R,4S)-1-(ethoxycarbonyl)-2-ethyl-6-(trifluoromethyl)-1,2,3,4-tetrahydroquinolin-4-yl]amino}pyrimidin-5-yl)oxy]butanoic acid}] has an IC50 of 0.064 µM.
